In one test the test system is Rattus norvegicus. The test can be described thus: Analgesic activity in ip dosed rat chronic constriction injury model of mechanical allodynia. Format: functional.
For test [1], the target named is Sodium channel protein type 10 subunit alpha (Rattus norvegicus, UniProt Q62968). The test can be described thus: Inhibition of Nav1.8 channel in rat dorsal root ganglion neurons assessed as blockade of TTX-R current by patch clamp method. Format: tissue-based. Background: Patch clamp records ionic current or voltage across a cell membrane.
Sodium channel protein type 10 subunit alpha, sequence (Q62968 whole entry): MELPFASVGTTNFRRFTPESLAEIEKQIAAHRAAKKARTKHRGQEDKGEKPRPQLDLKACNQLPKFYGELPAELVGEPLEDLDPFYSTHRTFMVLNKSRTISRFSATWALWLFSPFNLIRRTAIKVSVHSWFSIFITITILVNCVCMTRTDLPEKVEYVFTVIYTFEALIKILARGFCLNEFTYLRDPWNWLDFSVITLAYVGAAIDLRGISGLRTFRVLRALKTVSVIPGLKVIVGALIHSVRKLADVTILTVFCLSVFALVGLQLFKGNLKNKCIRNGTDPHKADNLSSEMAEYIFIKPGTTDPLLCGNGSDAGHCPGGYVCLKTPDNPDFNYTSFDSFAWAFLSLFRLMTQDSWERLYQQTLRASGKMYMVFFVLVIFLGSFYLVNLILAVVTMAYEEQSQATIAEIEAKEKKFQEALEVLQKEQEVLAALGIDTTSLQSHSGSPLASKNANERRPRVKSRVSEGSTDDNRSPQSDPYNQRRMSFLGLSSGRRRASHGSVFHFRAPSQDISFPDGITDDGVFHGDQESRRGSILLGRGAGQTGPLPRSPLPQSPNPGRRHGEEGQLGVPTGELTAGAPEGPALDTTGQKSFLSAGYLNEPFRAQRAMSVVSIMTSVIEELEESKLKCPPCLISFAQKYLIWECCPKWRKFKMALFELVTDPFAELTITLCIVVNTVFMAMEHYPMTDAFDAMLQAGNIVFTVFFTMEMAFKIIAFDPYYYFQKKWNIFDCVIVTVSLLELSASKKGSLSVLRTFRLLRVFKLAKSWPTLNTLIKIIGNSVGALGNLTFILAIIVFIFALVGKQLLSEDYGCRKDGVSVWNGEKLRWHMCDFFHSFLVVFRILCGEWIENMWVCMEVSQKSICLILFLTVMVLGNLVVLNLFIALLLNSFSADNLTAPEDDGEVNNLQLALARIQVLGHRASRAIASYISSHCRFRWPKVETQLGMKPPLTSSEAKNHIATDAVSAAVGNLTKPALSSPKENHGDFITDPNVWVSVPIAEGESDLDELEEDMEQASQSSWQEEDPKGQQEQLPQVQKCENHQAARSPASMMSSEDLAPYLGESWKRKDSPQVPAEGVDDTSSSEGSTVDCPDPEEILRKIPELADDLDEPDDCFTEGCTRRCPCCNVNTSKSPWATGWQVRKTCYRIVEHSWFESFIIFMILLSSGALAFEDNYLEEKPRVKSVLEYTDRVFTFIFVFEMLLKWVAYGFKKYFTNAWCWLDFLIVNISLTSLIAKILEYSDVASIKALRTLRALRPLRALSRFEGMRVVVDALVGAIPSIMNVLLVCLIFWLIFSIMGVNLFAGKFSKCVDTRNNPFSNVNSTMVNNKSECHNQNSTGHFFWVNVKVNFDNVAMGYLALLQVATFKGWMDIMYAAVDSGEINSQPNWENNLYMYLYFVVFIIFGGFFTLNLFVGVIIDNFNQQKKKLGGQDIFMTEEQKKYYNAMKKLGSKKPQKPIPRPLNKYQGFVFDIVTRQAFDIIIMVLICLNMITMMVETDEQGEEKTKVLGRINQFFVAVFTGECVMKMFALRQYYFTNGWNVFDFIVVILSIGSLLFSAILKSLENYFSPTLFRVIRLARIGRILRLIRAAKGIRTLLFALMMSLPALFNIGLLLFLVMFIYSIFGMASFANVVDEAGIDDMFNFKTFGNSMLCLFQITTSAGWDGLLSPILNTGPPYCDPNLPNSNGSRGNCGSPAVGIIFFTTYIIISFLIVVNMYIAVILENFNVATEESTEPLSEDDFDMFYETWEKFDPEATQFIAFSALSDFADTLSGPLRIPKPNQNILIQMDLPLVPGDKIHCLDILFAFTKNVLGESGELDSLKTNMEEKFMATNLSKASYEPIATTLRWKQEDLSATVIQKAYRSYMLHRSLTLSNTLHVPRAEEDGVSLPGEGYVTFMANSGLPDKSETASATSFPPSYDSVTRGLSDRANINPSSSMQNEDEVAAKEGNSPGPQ

Among the data in ChEMBL document CHEMBL1142222, “A-803467, a potent and selective Nav1.8 sodium channel blocker, attenuates neuropathic and inflammatory pain in the rat” (Proc Natl Acad Sci U S A, 2007) are ED50 and IC50 values, retold here.

As usually defined, the ED50 is the dose that gives a 50% effect, or the effect in half of the subjects. The low end stands for an effect at a small dose, the high end for a need for a large dose. In general, pIC50 refers to −log10 of the IC50, conventionally taken in molar units.

Molecules are shown by their SMILES. pIC50: −log10 of the molar value. Where only a bound is given, the exact number is not on record here.

`NCC1(CC(=O)O)CCCCC1` [GABAPENTIN] gave an ED50 with Rattus norvegicus of 40 mg/kg.
Take `Nc1nnc(-c2cccc(Cl)c2Cl)c(N)n1` [LAMOTRIGINE]: the 50% effect level with Rattus norvegicus (ED50) was put at a dose of 20 mg/kg.
`Cc1cccc(C)c1OCC(C)N` (stereo not drawn) [MEXILETINE]: in test [1], the pIC50 was less than 4.52.
